Data on 24 compounds can be found in patent US12577227B2, “WDR5 inhibitors and modulators” (Vanderbilt University, priority 2019, dated 2026).

Where only a bound is given, the exact number is not on record here.

The assay deals with MV4:11 human cancer cell lines. The assay can be described thus: Cellular viability / anti-proliferative activity (CellTiter-Glo). Format: cell-based. The following applies: MV4-11, 120 h, MV-4-11 cells, 5 day protocol, mean of minimum two replicates, read-out: GI50 on cellular proliferation of MV4:11 human cancer cell lines. Here is the method: Cellular Viability of Human Tumor Cell Lines
Anti-Proliferative Activity Using MLL-Harboring Cell Lines.
MV-4-11 and K562 cells are grown in IMDM media supplemented with 10% FBS and […], Molm-13 cells are cultured in RPMI-1640 media supplemented with 10% FBS and 1% o penicillin/streptomycin. Viability assays are performed by dispensing 200 cells at 7200 cells/mL into each well of an opaque 384-well plate and adding compounds at the indicated concentrations in a final volume of 32 μL and a final concentration of DMSO of 0.3% for all samples. A certain range of compound concentrations is made through a series of 2-fold dilutions starting 30 μM at the highest, total 22 dilutions. After a set incubation period, 5 day protocol, the viability of cells in each well is assessed using the CellTiter-Glo assay (Promega), read on a 96 Microplane Luminometer (Cytation 3, BioTek). Serial dilutions of each cell type are performed in all assays to generate standard curves and the final densities of cells are determined within the dynamic range of the instrument. GI50 values are calculated based on XLfit software (IDBS, Guildford, UK) with Sigmoidal Dose-Response Model. Each compound is tested in minimum of two replicates. Data are expressed as mean.
(ATP-based viability assays read luminescence as a measure of living cells.)
Turning to `COc1ccnc([C@H](C)N2CCOc3c(cc(Cn4ccnc4C)cc3-c3ccc(F)cc3C)C2=O)c1` [Example 50, (S)-9-(4-Fluoro-2-methylphenyl)-4-(1-(4-methoxypyridin-2-yl)ethyl)-7-((2-methyl-1H-imidazol-1-yl)methyl)-3,4-dihydrobenzo[f][1,4]oxazepin-5(2H)-one], the GI50 was found to be 0.05 µM.
In the case of `Cc1ccnc(CN2CCOc3c(cc(Cn4cnn(C)c4=N)cc3-c3cn(C)nc3C(F)(F)F)C2=O)c1` [Example 32, 7-((5-imino-1-methyl-1,5-dihydro-4H-1,2,4-triazol-4-yl)methyl)-9-(1-methyl-3-(trifluoromethyl)-1H-pyrazol-4-yl)-4-((4-methylpyridin-2-yl)methyl)-3,4-dihydrobenzo[f][1,4]oxazepin-5(2H)-one] it was 0.775 µM; in that of `Cc1cc(C)nc(CN2CCOc3c(cc(Cn4ccnc4C)cc3-c3cc(C)ccc3C)C2=O)c1` [Example 49, 9-(2,5-Dimethylphenyl)-4-((4,6-dimethylpyridin-2-yl)methyl)-7-((2-methyl-1H-imidazol-1-yl)methyl)-3,4-dihydrobenzo[f][1,4]oxazepin-5(2H)-one], 0.045 µM; in that of `COc1ccc2nc(C)cc(N3CCOc4c(cc(Cn5ccnc5)cc4-c4cn(C)nc4C(F)(F)F)C3=O)c2c1` [Example 68, 7-((1H-imidazol-1-yl)methyl)-4-(6-methoxy-2-methylquinolin-4-yl)-9-(1-methyl-3-(trifluoromethyl)-1H-pyrazol-4-yl)-3,4-dihydrobenzo[f][1,4]oxazepin-5(2H)-one], 0.1 µM.
Turning to `COc1cc(CN2CC(C)Oc3c(cc(Cn4ccn(C)c4=N)cc3-c3ccc(F)cc3C)C2=O)cc(OC)c1` (stereo not drawn) [Example 17, 4-(3,5-Dimethoxybenzyl)-9-(4-fluoro-2-methylphenyl)-7-((2-imino-3-methyl-2,3-dihydro-1H-imidazol-1-yl)methyl)-2-methyl-3,4-dihydrobenzo[f][1,4]oxazepin-5(2H)-one], the GI50 worked out at 0.022 µM.
On to `COc1cc(OC)c2nc(C)cc(N3CCOc4c(cc(Cn5ccnc5)cc4-c4cn(C)nc4C(F)(F)F)C3=O)c2c1` [Example 69, 7-((1H-imidazol-1-yl)methyl)-4-(6,8-dimethoxy-2-methylquinolin-4-yl)-9-(1-methyl-3-(trifluoromethyl)-1H-pyrazol-4-yl)-3,4-dihydrobenzo[f][1,4]oxazepin-5(2H)-one], for which the GI50 turned out to be 0.039 µM.
With `Cc1cc(C)nc(CN2CCOc3c(cc(Cn4ccnc4C)cc3-c3ccc(F)cc3Cl)C2=O)c1` [Example 48, 9-(2-Chloro-4-fluorophenyl)-4-((4,6-dimethylpyridin-2-yl)methyl)-7-((2-methyl-1H-imidazol-1-yl)methyl)-3,4-dihydrobenzo[f][1,4]oxazepin-5(2H)-one] the figure was 0.095 µM; with `COc1ccc2c(c1)C(N1CCOc3c(cc(Cn4ccnc4C)cc3-c3cn(C)nc3C(F)(F)F)C1=O)CCC2` (stereo not drawn) [Example 57, 4-(7-Methoxy-1,2,3,4-tetrahydronaphthalen-1-yl)-7-((2-methyl-1H-imidazol-1-yl)methyl)-9-(1-methyl-3-(trifluoromethyl)-1H-pyrazol-4-yl)-3,4-dihydrobenzo[f][1,4]oxazepin-5(2H)-one], 0.029 µM.
In the case of `COc1cc(CN2CCOc3c(cc(CNc4nocc4C)cc3-c3ccc(F)cc3C)C2=O)cc(OC)c1` [Example 7, 4-(3,5-Dimethoxybenzyl)-9-(4-fluoro-2-methylphenyl)-7-(((4-methylisoxazol-3-yl)amino)methyl)-3,4-dihydrobenzo[f][1,4]oxazepin-5(2H)-one] it was greater than 0.94 µM; in that of `CCc1nccn1Cc1cc2c(c(-c3cn(C)nc3C(F)(F)F)c1)OCCN(Cc1cc(C)ccn1)C2=O` [Example 37, 7-((2-Ethyl-1H-imidazol-1-yl)methyl)-9-(1-methyl-3-(trifluoromethyl)-1H-pyrazol-4-yl)-4-((4-methylpyridin-2-yl)methyl)-3,4-dihydrobenzo[f][1,4]oxazepin-5(2H)-one], 1.08 µM.
`Cc1cc(C)nc(CN2CCOc3c(cc(Cn4ccnc4C)cc3-c3cn(C)nc3C(F)(F)F)C2=O)c1` [Example 26, 4-((4,6-Dimethylpyridin-2-yl)methyl)-7-((2-methyl-1H-imidazol-1-yl)methyl)-9-(1-methyl-3-(trifluoromethyl)-1H-pyrazol-4-yl)-3,4-dihydrobenzo[f][1,4]oxazepin-5(2H)-one]: the GI50 stood at 0.135 µM.
With `COc1cc(Cn2cnc3c(-c4ccc(F)cc4C)cc(Cn4cnn(C)c4=N)cc3c2=O)cc(OC)c1` [Example 18, 3-(3,5-Dimethoxybenzyl)-8-(4-fluoro-2-methylphenyl)-6-((5-imino-1-methyl-1,5-dihydro-4H-1,2,4-triazol-4-yl)methyl)quinazolin-4(3H)-one] the figure was 0.672 µM.
With `COc1ccc2nccc(N3CCOc4c(cc(Cn5ccnc5C)cc4-c4cn(C)nc4C(F)(F)F)C3=O)c2c1` [Example 58, 4-(6-Methoxyquinolin-4-yl)-7-((2-methyl-1H-imidazol-1-yl)methyl)-9-(1-methyl-3-(trifluoromethyl)-1H-pyrazol-4-yl)-3,4-dihydrobenzo[f][1,4]oxazepin-5(2H)-one] the figure was 0.077 µM; with `Cc1cc(C)nc(CN2CCOc3c(cc(Cn4ccnc4C)cc3-c3scnc3C)C2=O)c1` [Example 46, 4-((4,6-Dimethylpyridin-2-yl)methyl)-7-((2-methyl-1H-imidazol-1-yl)methyl)-9-(4-methylthiazol-5-yl)-3,4-dihydrobenzo[f][1,4]oxazepin-5(2H)-one], 0.703 µM; with `COc1cc(Cn2cnc3c(-c4ccc(F)cc4C)cc(Cn4ccc5ccccc54)cc3c2=O)cc(OC)c1` [Example 4, 6-((1H-Indol-1-yl)methyl)-3-(3,5-dimethoxybenzyl)-8-(4-fluoro-2-methylphenyl)quinazolin-4(3H)-one], greater than 0.94 µM.
`Cn1cc(-c2cc(Cn3ccn(C)c3=N)cc3c(=O)n(-c4ccccc4-c4ccccc4)cnc23)c(C(F)(F)F)n1` [Example 24, 3-([1,1′-Biphenyl]-2-yl)-6-((2-imino-3-methyl-2,3-dihydro-1H-imidazol-1-yl)methyl)-8-(1-methyl-3-(trifluoromethyl)-1H-pyrazol-4-yl)quinazolin-4(3H)-one]: the GI50 was 9.01 µM.
With `COc1cc(CN2CC(=O)Nc3c(cc(Cn4ccoc4=N)cc3-c3ccc(F)cc3C)C2=O)cc(OC)c1` [Example 30, 4-(3,5-Dimethoxybenzyl)-9-(4-fluoro-2-methylphenyl)-7-((2-iminooxazol-3(2H)-yl)methyl)-3,4-dihydro-1H-benzo[e][1,4]diazepine-2,5-dione] the figure was 0.19 µM; with `COc1cc(CN2CCNc3c(cc(Cn4ccn(C)c4=N)cc3-c3ccc(F)cc3C)C2=O)cc(OC)c1` [Example 29, 4-(3,5-Dimethoxybenzyl)-9-(4-fluoro-2-methylphenyl)-7-((2-imino-3-methyl-2,3-dihydro-1H-imidazol-1-yl)methyl)-1,2,3,4-tetrahydro-5H-benzo[e][1,4]diazepin-5-one], 0.038 µM.
In the case of `Cc1cc(C)nc(CN2CCOc3c(cc(Cn4ccnc4C)cc3-c3cccnc3C)C2=O)c1` [Example 44, 4-((4,6-Dimethylpyridin-2-yl)methyl)-7-((2-methyl-1H-imidazol-1-yl)methyl)-9-(2-methylpyridin-3-yl)-3,4-dihydrobenzo[f][1,4]oxazepin-5(2H)-one] it was 0.548 µM; in that of `COc1cc(CN2CNc3c(cc(Cn4ccn(C)c4=N)cc3-c3ccc(F)cc3C)C2=O)cc(OC)c1` [Example 23, 3-(3,5-Dimethoxybenzyl)-8-(4-fluoro-2-methylphenyl)-6-((2-imino-3-methyl-2,3-dihydro-1H-imidazol-1-yl)methyl)-2,3-dihydroquinazolin-4(1H)-one], 0.092 µM.
Regarding `COc1cc(CN2CC(=O)Nc3c(cc(Cn4ccnc4C)cc3-c3ccc(F)cc3C)C2=O)cc(OC)c1` [Example 28, 4-(3,5-Dimethoxybenzyl)-9-(4-fluoro-2-methylphenyl)-7-((2-methyl-1H-imidazol-1-yl)methyl)-3,4-dihydro-1H-benzo[e][1,4]diazepine-2,5-dione], the GI50 was 0.232 µM.
In the case of `COc1ccnc([C@H](C)N2CCOc3c(cc(Cn4ccnc4C)cc3-c3cc(C)ccc3C)C2=O)c1` [Example 56, (S)-9-(2,5-Dimethylphenyl)-4-(1-(4-methoxypyridin-2-yl)ethyl)-7-((2-methyl-1H-imidazol-1-yl)methyl)-3,4-dihydrobenzo[f][1,4]oxazepin-5(2H)-one] it was 0.037 µM; in that of `COc1cc(Cn2cnc3c(-c4ccc(F)cc4C)cc(Cn4ccc5cccnc54)cc3c2=O)cc(OC)c1` [Example 5, 6-((1H-Pyrrolo[2,3-b]pyridin-1-yl)methyl)-3-(3,5-dimethoxybenzyl)-8-(4-fluoro-2-methylphenyl)quinazolin-4(3H)-one], greater than 0.94 µM; in that of `Cc1cc(C)nc(CN2CCOc3c(cc(Cn4ccn(C)c4=N)cc3-c3ccc(F)cc3C)C2=O)c1` [Example 12, 4-((4,6-Dimethylpyridin-2-yl)methyl)-9-(4-fluoro-2-methylphenyl)-7-((2-imino-3-methyl-2,3-dihydro-1H-imidazol-1-yl)methyl)-3,4-dihydrobenzo[f][1,4]oxazepin-5(2H)-one], 0.0035 µM.
